Laboratory results: patent EP3064205A1, “Therapeutic use of isomeric forms of 2-(4-chlorophenyl)quinolin-4-yl)(piperidin-2-yl)methanol” (Glionova AB, priority 2015, dated 2016)
Read-outs that look alike come from different tables or passages of the source.

What was measured:
Experiment in all cases: 3D clonogenic assay (PDX)
Format in all cases: cell-based, human
[1] = system: RXF 616; conditions: RXF 616, Renal; for IC50: Homo sapiens
Method in brief: (§1)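 PDX tumors from NMRI nu/nu mice were enzymatically dissociated into cell suspensions and plated in soft agar. After 24 h, cells received continuous exposure to 10 concentrations (50 µM down to 0.0015 µM, in duplicate) for 8–13 days at 37 °C. Colonies >50 µm were stained with INT tetrazolium and counted by automated imaging; IC50 values came from 4-parameter fits.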

[2] = system: GXA 3023; conditions: GXA 3023, Asian Gastric; for IC50: Homo sapiens
Method in brief: as §1

[3] = system: LXFL 1121; conditions: LXFL 1121, Lung Large Cell; for IC50: Homo sapiens
Method in brief: as §1

[4] = system: MEXF 274; conditions: MEXF 274, Melanoma; for IC50: Homo sapiens
Method in brief: as §1

[5] = system: PAXF 2094; conditions: PAXF 2094, Pancreas; for IC50: Homo sapiens
Method in brief: as §1

[6] = system: BXF 1218; conditions: BXF 1218, Bladder; for IC50: Homo sapiens
Method in brief: as §1

[7] = system: OVXF 899; conditions: OVXF 899, Ovarian; for IC50: Homo sapiens
Method in brief: as §1

[8] = system: MAXF 1162; conditions: MAXF 1162, Breast; for IC50: Homo sapiens
Method in brief: as §1

- IC50 ([1]; read-out: abs. IC50): 8.81 µM
- IC50 ([1]; read-out: rel. IC50): 8.77 µM
- IC50 ([2]; read-out: abs. IC50): 5.26 µM
- IC50 ([2]; read-out: rel. IC50): 5.02 µM
- IC50 ([3]; read-out: abs. IC50): 8.66 µM
- IC50 ([3]; read-out: rel. IC50): 8.61 µM
- IC50 ([4]; read-out: abs. IC50): 8.84 µM
- IC50 ([4]; read-out: rel. IC50): 8.69 µM
- IC50 ([5]; read-out: abs. IC50): 8.88 µM
- IC50 ([5]; read-out: rel. IC50): 8.64 µM
- IC50 ([6]; read-out: abs. IC50): 6.16 µM
- IC50 ([6]; read-out: rel. IC50): 6.02 µM
- IC50 ([7]; read-out: abs. IC50): 6.38 µM
- IC50 ([7]; read-out: rel. IC50): 6.16 µM
- IC50 ([8]; read-out: abs. IC50): 4.64 µM
- IC50 ([8]; read-out: rel. IC50): 4.63 µM
Compound: O[C@H](c1cc(-c2ccc(Cl)cc2)nc2ccccc12)[C@@H]1CCCCN1 [S1, (R)-(2-(4-chlorophenyl)quinolin-4-yl)((S)-piperidin-2-yl)methanol]
- b (bottom plateau of concentration-effect curve) [1]: 17
- t (top plateau of concentration-effect curve) [1]: 89
- b (bottom plateau of concentration-effect curve) [2]: 30
- t (top plateau of concentration-effect curve) [2]: 90
- b (bottom plateau of concentration-effect curve) [3]: 9
- t (top plateau of concentration-effect curve) [3]: 101
- b (bottom plateau of concentration-effect curve) [4]: 17
- t (top plateau of concentration-effect curve) [4]: 103
- b (bottom plateau of concentration-effect curve) [5]: 30
- t (top plateau of concentration-effect curve) [5]: 105
- b (bottom plateau of concentration-effect curve) [6]: 15
- t (top plateau of concentration-effect curve) [6]: 100
- b (bottom plateau of concentration-effect curve) [7]: 18
- t (top plateau of concentration-effect curve) [7]: 100
- b (bottom plateau of concentration-effect curve) [8]: 12
- t (top plateau of concentration-effect curve) [8]: 90
